{"source": "patent US20260232692A1", "about": "“Methods Of Treating Cancer Using BCL-2 Inhibitors With Iron And Heme Supplementation Therapies” (Emory University, priority 2023, published 2026)", "key": {"VS t(11; 14) cell lines": {"tested_on": "VS t(11; 14) cell lines", "experiment": "Rescue of FAC mediated cell death in VS t(11;14) cell lines", "format": "cell-based", "settings": "in the presence and absence of venetoclax", "experimental": "Intracellular iron overload, ROS mediated lipid peroxidation, and loss of GSH/GPX4 mediated antioxidant defenses are all features of ferroptosis. Experiments were performed to determine whether FAC supplementation in VS t(11; 14) MM promotes cell death via ferroptosis. VS t(11; 14) cell lines were treated with a ferrostatin (Fn-1), a synthetic antioxidant that acts via a reductive mechanism to prevent damage to membrane lipids and thereby, inhibits cell death. Inhibiting ferroptosis was able to fully rescue the cell death induced by FAC both in the presence and absence of venetoclax (FIG. 8B). Boc-D-FMK is a caspase inhibitor that inhibits apoptosis."}, "[1]": {"tested_on": "venetoclax sensitive (VS) multiple myeloma (MM) cell lines", "experiment": "Hemin/5-ALA supplementation and Ven sensitivity in VS MM cell lines, Annexin V/DAPI flow cytometry", "format": "cell-based", "settings": "50 μM Hemin/5-ALA pre-treatment 24 hours, then Ven 24 hrs", "experimental": "Cell death/viability was assessed by Annexin V/DAPI flow cytometric staining.\nTo test the necessity for reduced heme synthesis for Ven sensitivity in t(11; 14) MM, Ven treated cells were supplemented with either the heme synthesis precursor 5-ALA or hemin (oxidized heme and active ingredient of clinically approved Panhematin™)."}, "MEK-ERK-mTORC1 signaling": {"tested_on": "MEK-ERK-mTORC1 signaling", "experiment": "MEK-ERK-mTORC1 signaling in whole cell lysates of VS MM treated with hemin", "format": "cell-based", "settings": "50 μM hemin and/or 0.05 μM Ven for 18 h", "experimental": "Whole cell lysates of indicated lines were treated with 50 μM hemin and/or 0.05 μM Ven for 18 h. Indicated VS cells were treated with 50 µM hemin and 0.05 μM Ven and RAF, MEK, or ERK-inhibitors. Cell death/viability was evaluated by Annexin V/DAPI flow cytometric staining."}, "[2]": {"tested_on": "venetoclax sensitive acute myeloid leukemia (AML) cell lines", "experiment": "Hemin supplementation and venetoclax sensitivity in AML cell lines", "format": "cell-based"}, "[3]": {"tested_on": "VS t(11; 14) MM cell lines", "experiment": "Growth/viability of VS t(11;14) MM cell lines under iron chelation or supplementation (CellTiter-Glo 3D)", "format": "cell-based", "settings": "iron chelation with DFO or supplementation with FAC (500 μM FAC up to 96 h, FIG. 7A)", "experimental": "Cells were treated with 500 μM FAC up to 96 h and assessed for viability using CellTiter-Glo® 3D Cell Viability Assay.\nIron is a cofactor for the maintenance of ETC activity. The impact of modulating iron levels either by chelation with deferoxamine (DFO) or supplementation with ferric ammonium citrate (FAC) was assessed in a panel of VS t(11; 14) and VR non t(11; 14) MM cell lines."}, "[4]": {"tested_on": "reactive oxygen species (ROS) in VS t(11; 14) MM", "settings": "FAC treated VS t(11;14) MM", "text": "(§1) Free or excess intracellular iron is a potent inducer of reactive oxygen species (ROS) and oxidative stress."}, "[5]": {"tested_on": "iron homeostasis-related protein in VS t(11; 14) cell lines", "experimental": "FIG. 8B show data on the expression of iron homeostasis-related protein in whole cell lysates supplemented with 500 μM FAC for 72 h in indicated cell lines by immunoblotting using actin as a loading control. Indicated cell lines were treated with a ferroptotic inhibitor, ferrostatin (Fn-1).\nas §1"}, "t(11; 14) patient sample": {"tested_on": "t(11; 14) patient sample", "settings": "FAC 250 μM and 500 μM, venetoclax 0.001, 0.005 and 0.01 μM, FIG. 7C"}}, "note": "“Also recorded” adds a separate entry of the source."}
{"molecule": "COC(=O)CC(NC(=O)OC(C)(C)C)C(=O)CF", "note": "[Boc-D-FMK]", "values": [{"measurement": "rescue of cell death induced by FAC", "setting": "VS t(11; 14) cell lines", "value": "not able to rescue"}]}
{"molecule": "CCOC(=O)c1ccc(NC2CCCCC2)c(N)c1", "note": "[ferrostatin]", "values": [{"measurement": "rescue of cell death induced by FAC", "setting": "VS t(11; 14) cell lines", "value": "sufficient to mitigate; also recorded: fully rescue"}]}
{"molecule": "C=CC1=C(C)c2cc3[n-]c(cc4[n-]c(cc5nc(cc1n2)C(C)=C5C=C)c(C)c4CCC(=O)O)c(CCC(=O)O)c3C.[Fe+2]", "note": "[hemin, [7,12-diethenyl-3,8,13,17-tetramethyl-21H,23H-porphine-2,18-dipropanoato(2-)-N21,N22,N23,N24] iron]", "values": [{"measurement": "reversal (rescue) of Ven sensitivity", "setting": "[1]", "value": "significantly reversed; also recorded: reverses"}, {"measurement": "MEK-ERK-mTORC1 signaling", "setting": "MEK-ERK-mTORC1 signaling", "value": "restores"}, {"measurement": "reversal of venetoclax sensitivity", "setting": "[2]", "value": "reverses"}]}
{"molecule": "ferric ammonium citrate [FAC]", "values": [{"measurement": "effect on growth/proliferation of VS cell lines", "setting": "[3]", "value": "specifically inhibit the proliferation; also recorded: growth suppressive effect"}, {"measurement": "cytosolic ROS levels", "setting": "[4]", "value": "not in cytosolic ROS levels"}, {"measurement": "mitochondrial ROS", "setting": "[4]; 48 h", "value": "significant elevation"}, {"measurement": "cystine-glutamate antiporter SLC7A11 expression", "setting": "[5]; FAC treatment", "value": "not altered"}, {"measurement": "iron importer TFR1 expression", "setting": "[5]; FAC treatment", "value": "reduction"}, {"measurement": "iron storage protein ferritin expression", "setting": "[5]; FAC treatment", "value": "increase"}, {"measurement": "glutathione peroxidase 4 (GPX4) protein expression", "setting": "[5]; all VS t(11;14) cell lines, 500 μM FAC for 72 h", "value": "consistent reduction"}, {"measurement": "sensitivity to venetoclax with iron supplementation", "setting": "t(11; 14) patient sample", "value": "A similar response"}]}
